Experimental data reported in patent publication US20240377399A1, “COMPOSITIONS AND METHODS FOR MODULATING HYDROXYLATION OF ACC2 BY PHD3” (President and Fellows of Harvard College, priority 2015, published 2024).
“Also recorded” adds a separate entry of the source. Blank lines part the entries; values can stand above or below the compound they belong to.

What was measured:
[1] = tested on: MOLM14 cells; assay: Palmitate oxidation (FAO assay); format: cell-based, human; conditions: S2E 50 μM for 3 days; 3 h incubation with radiolabeled palmitate
Procedure: FIG. 15 includes 10 panels, FIGS. 15A-J, showing PHD3 modulation in leukemia cell lines. FIG. 15A, PHD3 expression in MOLM14 and THP1 cells following stable overexpression of vector or PHD3 (n=3). FIG. 15B, Palmitate oxidation in HepG2 cells treated with etomoxir during the 2 h FAO assay (100 μM, n=3). FIG. 15C and FIG. 15D, PHD3 expression and growth curves in K562 cells following stable overexpression of PHD3 or vector (n=3). FIG. 15E, Growth curves of K562 cells stably expressing shRNA against PHD3 or control (n=3). FIG. 15F, Colony formation assay with K562 cells stably expressing shRNA against PHD3 or non-silencing control. Colony forming units (CFU) were counted 10 days after plating (n=2). FIG. 15G, Representative images from colony formation assays with K562 cells stably expressing shRNA against PHD3 or non-silencing control. Colonies were imaged on day 10 using an inverted microscope (Nikon Eclipse Ti-U) at 200× magnification and SPOT camera software 5.0. […] MOLM14 cells were incubated with S2E (50 μM) or vehicle for 3 days. FAO was measured following 3 h incubation with radiolabeled palmitate in the presence of S2E or vehicle. FIG. 151, PHD3 expression in MOLM14 cells following stable overexpression of vector or PHD3 (n=3). […]

[2] = tested on: MOLM14 cells; assay: Cell growth (cell counting at 72 h) following PHD3 overexpression; format: cell-based, human; conditions: PHD3-overexpressing MOLM14; S2E 50 μM or metformin 1 mM
Text: FIG. 12B, Growth curves of MOLM14 and THP1 cells stably overexpressing vector or PHD3 (n=3). FIG. 12C, ATP CellTiter-Glo analysis in MOLM14 and THP1 cells stably overexpressing vector or PHD3 (n=4). FIG. 12D, Colony formation assay with MOLM14 and THP1 cells stably overexpressing vector or PHD3. Colony forming units (CFU) were counted 8 days after plating MOLM14 and 20 days after plating THP1 (n=3). FIG. 12E, Representative images from colony formation assays with MOLM14 or THP1 cells stably overexpressing vector or PHD3. MOLM14 colonies were imaged on day 8 and THP1 colonies imaged on day 20 using an inverted microscope (Nikon Eclipse Ti-U) at 200× magnification and SPOT camera software 5.0. FIG. 12F, Immunoblot showing HA-PHD3 overexpression in K562 cells. FIG. 12G and FIG. 12H, Colony formation assay and representative images from K562 cells stably expressing PHD3 or vector. CFU were counted and imaged 10 days after plating (n=3). […] Following FACS to collect PI-negative cells, 8000 cells were plated per well of a 96-well plate, and cell number at 72 h was determined by cell counting (n=3). […] Colony formation was assessed in MOLM14 cells stably overexpressing vector or PHD3 in the presence or absence of metformin (Met, 1 mM). CFU were counted 8 days after plating (n=2). […]

[3] = target: T1, ACC2 (Homo sapiens, UniProt O00763); assay: ACC activity assay in 293T cell lysates; format: biochemical; conditions: lysates overexpressing ACC2; citrate 2 mM
T1 construct: expressed in transfected cells; host or cells: 293T cells, whole-cell lysate (50 ug protein per reaction)
T1 sequence (O00763 whole entry): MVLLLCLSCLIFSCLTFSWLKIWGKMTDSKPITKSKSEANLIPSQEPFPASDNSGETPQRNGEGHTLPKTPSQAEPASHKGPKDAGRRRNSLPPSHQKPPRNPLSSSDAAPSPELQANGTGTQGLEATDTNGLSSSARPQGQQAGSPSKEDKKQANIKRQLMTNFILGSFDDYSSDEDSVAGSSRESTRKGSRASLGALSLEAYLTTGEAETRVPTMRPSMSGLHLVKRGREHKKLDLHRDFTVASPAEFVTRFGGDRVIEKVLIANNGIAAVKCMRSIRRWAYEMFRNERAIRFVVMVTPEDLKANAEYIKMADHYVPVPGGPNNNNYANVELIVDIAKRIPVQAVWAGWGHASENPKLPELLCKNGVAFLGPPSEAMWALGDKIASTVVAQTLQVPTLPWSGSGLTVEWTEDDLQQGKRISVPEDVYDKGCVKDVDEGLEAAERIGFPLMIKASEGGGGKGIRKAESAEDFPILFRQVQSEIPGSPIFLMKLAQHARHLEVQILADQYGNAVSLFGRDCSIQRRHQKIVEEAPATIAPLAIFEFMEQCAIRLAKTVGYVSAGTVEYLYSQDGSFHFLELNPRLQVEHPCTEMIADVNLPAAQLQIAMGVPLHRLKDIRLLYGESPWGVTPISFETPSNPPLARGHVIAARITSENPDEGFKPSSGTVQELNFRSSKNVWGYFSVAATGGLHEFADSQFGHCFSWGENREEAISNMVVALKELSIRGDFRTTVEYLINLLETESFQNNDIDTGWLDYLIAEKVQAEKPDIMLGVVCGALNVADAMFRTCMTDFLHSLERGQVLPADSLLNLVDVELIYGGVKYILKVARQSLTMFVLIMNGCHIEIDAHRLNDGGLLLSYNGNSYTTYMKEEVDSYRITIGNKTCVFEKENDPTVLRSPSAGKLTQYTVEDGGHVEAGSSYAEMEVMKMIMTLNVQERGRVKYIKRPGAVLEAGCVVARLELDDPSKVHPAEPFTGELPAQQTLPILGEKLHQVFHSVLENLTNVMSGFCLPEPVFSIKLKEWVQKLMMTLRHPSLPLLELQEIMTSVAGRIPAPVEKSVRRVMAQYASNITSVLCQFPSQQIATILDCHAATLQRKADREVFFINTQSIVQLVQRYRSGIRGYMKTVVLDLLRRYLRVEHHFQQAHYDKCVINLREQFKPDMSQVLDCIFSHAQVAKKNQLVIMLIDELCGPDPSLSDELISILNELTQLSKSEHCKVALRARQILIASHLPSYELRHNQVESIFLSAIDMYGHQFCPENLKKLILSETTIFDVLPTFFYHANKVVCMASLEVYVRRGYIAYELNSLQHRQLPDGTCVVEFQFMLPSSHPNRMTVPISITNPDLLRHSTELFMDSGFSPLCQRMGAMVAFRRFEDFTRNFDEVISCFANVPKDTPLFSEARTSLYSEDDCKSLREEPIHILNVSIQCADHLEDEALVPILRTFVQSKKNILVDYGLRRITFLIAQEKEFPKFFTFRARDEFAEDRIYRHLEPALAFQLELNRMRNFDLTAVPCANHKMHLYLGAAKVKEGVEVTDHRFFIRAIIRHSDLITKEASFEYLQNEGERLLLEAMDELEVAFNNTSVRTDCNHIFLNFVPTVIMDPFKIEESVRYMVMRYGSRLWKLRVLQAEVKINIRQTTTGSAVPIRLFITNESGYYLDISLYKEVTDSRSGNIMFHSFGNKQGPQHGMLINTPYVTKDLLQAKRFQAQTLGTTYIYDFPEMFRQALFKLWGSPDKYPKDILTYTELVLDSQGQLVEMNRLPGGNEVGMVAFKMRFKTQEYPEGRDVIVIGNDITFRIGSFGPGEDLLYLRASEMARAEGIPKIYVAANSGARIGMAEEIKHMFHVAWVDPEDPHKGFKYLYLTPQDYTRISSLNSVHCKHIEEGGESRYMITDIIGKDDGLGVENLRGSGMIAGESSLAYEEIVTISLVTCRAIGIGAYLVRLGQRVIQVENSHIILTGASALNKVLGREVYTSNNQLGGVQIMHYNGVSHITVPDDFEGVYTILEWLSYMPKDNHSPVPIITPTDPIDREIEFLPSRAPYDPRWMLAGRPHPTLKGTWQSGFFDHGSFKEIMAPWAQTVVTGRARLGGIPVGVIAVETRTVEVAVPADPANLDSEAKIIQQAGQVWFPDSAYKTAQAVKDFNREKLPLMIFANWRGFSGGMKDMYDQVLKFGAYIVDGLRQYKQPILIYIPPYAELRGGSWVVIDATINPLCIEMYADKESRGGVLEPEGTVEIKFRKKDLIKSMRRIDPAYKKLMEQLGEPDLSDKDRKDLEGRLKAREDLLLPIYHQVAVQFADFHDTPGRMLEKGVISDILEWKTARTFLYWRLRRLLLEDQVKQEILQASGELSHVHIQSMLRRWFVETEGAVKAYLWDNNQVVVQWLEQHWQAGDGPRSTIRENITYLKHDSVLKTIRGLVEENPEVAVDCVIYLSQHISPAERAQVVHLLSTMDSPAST
Procedure: ACC activity assay. Reactions were performed as previously described, with the exception of using 16.7 mM MgCl2 instead. 50 μg protein lysate was used for each reaction. Following addition of 1 N HCl to quench reactions and convert remaining [^14C]bicarbonate (American Radiolabeled Chemicals) to CO2, reactions were evaporated 2 hours at 600 and 15 min at 850 in a thermo shaker. ACC activity was calculated as incorporation of [^14C]bicarbonate into [^14C]malonyl CoA (the acid and heat stable product) as measured by scintillation counting.

[4] = tested on: 293T cells; assay: Palmitate oxidation (FAO assay); format: cell-based, human; conditions: low glucose, serum-free medium supplemented 5 mM for 6 h; PHD3-dependent
Procedure: FIG. 10C is a photograph of an immunoblot showing 293T cells stably expressing shRNA against PHD3 or non-targeting control were incubated 12 h in high or low nutrient media prior to analyzing ACC hydroxylation by IP and immunoblot. FIG. 10D is a photograph of an immunoblot showing ACC hydroxylation dynamically responds to cellular nutrient cues. WT immortalized MEFs were incubated in high (4.5 g/L glucose DMEM with serum) or low (1 g/L glucose DMEM without serum) nutrient medium for 6 h, or in low nutrient medium for 6 h followed by adding back high nutrient medium for 5 or 10 min. ACC was immunoprecipitated in lysis buffer containing the PHD inhibitor DMOG (1 mM) to minimize further hydroxylation in the lysis buffer. Hydroxylation was detected by immunoblot. FIG. 10E is a bar graph showing the impact of PHD3 knockdown on the ability of immortalized MEFs to modulate palmitate oxidation levels in response to low or high nutrient medium (n=3). […] FIG. 10G is a bar graph showing short, medium and long chain acylcarnitine levels as measured by metabolomics analysis of 293T cells grown in high nutrient medium following stable knockdown with shRNA against PHD3 or control. […]

[5] = tested on: KU812; assay: Leukemia cell viability by PI staining after 96 hr drug treatment; format: cell-based, human; conditions: low-PHD3 CML cell line; 96 hr treatment with etomoxir
Procedure: (§1) Drug treatment and PI staining. Cells were treated 96 hr with a range of doses of etomoxir (Cayman Chemical) or ranolazine dihydrochloride (VWR/Selleck Chemicals) or vehicle. Fresh etomoxir was spiked in at 24, 48 and 72 hr. Fresh ranolazine was spiked in at 48 hr. Dosing schedules were determined by identifying the minimum number of times drug must be re-added to observe an effect on cell viability. Cell viability at 96 hr was determined by staining cells with 1 µg/ml propidium iodide (Sigma) in PBS and flow cytometry on the BD LSR-II analyzer.

[6] = tested on: low-PHD3 leukemia cells; assay: as above; format: cell-based, human; conditions: 96 hr treatment, ranolazine 0-500 μM or etomoxir 0-200 μM
Procedure: as §1

[7] = tested on: HepG2 cells; assay: Palmitate oxidation (FAO assay); format: cell-based, human; conditions: etomoxir 100 μM during the 2 h FAO assay; figure printed for PHD3 overexpression, etomoxir stated to achieve a similar level
Procedure: Fatty acid oxidation. For FAO assays, cells in 12 well-plates were pre-incubated with 100 µM palmitate or hexanoate and 1 mM carnitine for 4 hr in serum-free low glucose media, unless otherwise noted. Cells were then changed to 600 l media containing 1 μCi [9,10(n)-^3H]palmitic acid (GE Healthcare) or 1.8 μCi n-[5,6-^3H]hexanoic acid (American Radiolabeled Chemicals) and 1 mM carnitine for 2 hr. The medium was collected and eluted in columns packed with DOWEX 1X2-400 ion exchange resin (Sigma) to analyze the released ^3H20, formed during oxidation of [3H]palmitate. FAO in complete media indicates media including serum was used for pre-incubation and FAO analysis. Basal FAO indicates cells were not pre-incubated with fatty acids prior to FAO analysis. For all FAO experiments, counts per minute (CPM) were normalized to protein content in cell lysates.

[8] = tested on: MOLM14 cells; assay: Colony formation assay (soft agar); format: cell-based, human; conditions: for colony formation (growth): PHD3-overexpressing MOLM14, metformin 1 mM, CFU counted 8 days after plating
Text: FIG. 12B, Growth curves of MOLM14 and THP1 cells stably overexpressing vector or PHD3 (n=3). FIG. 12C, ATP CellTiter-Glo analysis in MOLM14 and THP1 cells stably overexpressing vector or PHD3 (n=4). FIG. 12D, Colony formation assay with MOLM14 and THP1 cells stably overexpressing vector or PHD3. Colony forming units (CFU) were counted 8 days after plating MOLM14 and 20 days after plating THP1 (n=3). FIG. 12E, Representative images from colony formation assays with MOLM14 or THP1 cells stably overexpressing vector or PHD3. MOLM14 colonies were imaged on day 8 and THP1 colonies imaged on day 20 using an inverted microscope (Nikon Eclipse Ti-U) at 200× magnification and SPOT camera software 5.0. FIG. 12F, Immunoblot showing HA-PHD3 overexpression in K562 cells. FIG. 12G and FIG. 12H, Colony formation assay and representative images from K562 cells stably expressing PHD3 or vector. CFU were counted and imaged 10 days after plating (n=3). […] Cells were treated with S2E (50 μM, Sigma), metformin (1 mM, Sigma) or vehicle following viral infection with PHD3 and throughout the duration of the experiment. Infected cells were selected with puromycin. Following FACS to collect PI-negative cells, 8000 cells were plated per well of a 96-well plate, and cell number at 72 h was determined by cell counting (n=3). […] Colony formation was assessed in MOLM14 cells stably overexpressing vector or PHD3 in the presence or absence of metformin (Met, 1 mM). CFU were counted 8 days after plating (n=2). FIG. 12K, qPCR analysis of PHD3 gene expression in primary human CD34+ cells from bone marrow filtrate of a healthy donor or AML patient samples (690a, 2093 and 2266). PPIA was used as a reference gene. FIG. 12L, ATP CellTiter-Glo analysis of cell viability in AML patient samples following stable overexpression of empty vector or PHD3 (n=4).

[9] = tested on: K562 leukemia cells; assay: Leukemia cell viability by PI staining after 96 hr drug treatment; format: cell-based, human; conditions: high-PHD3 CML line, 96 hr treatment, ranolazine 0-500 μM or etomoxir 0-200 μM
Procedure: as §1

[10] = tested on: MEGO1; assay: as above; format: cell-based, human; conditions: high-PHD3 CML cell line, high dose of ranolazine, compared to low-PHD3 AML cells
Procedure: as §1

[11] = target: recombinant PHD3 (Homo sapiens, UniProt Q9H6Z9); assay: In vitro hydroxylation assay with ACC2 peptides; format: biochemical; conditions: 12.5 nmol synthetic peptide; radioactivity-based, [14C]CO2 release
Sequence of recombinant PHD3 (Q9H6Z9 whole entry): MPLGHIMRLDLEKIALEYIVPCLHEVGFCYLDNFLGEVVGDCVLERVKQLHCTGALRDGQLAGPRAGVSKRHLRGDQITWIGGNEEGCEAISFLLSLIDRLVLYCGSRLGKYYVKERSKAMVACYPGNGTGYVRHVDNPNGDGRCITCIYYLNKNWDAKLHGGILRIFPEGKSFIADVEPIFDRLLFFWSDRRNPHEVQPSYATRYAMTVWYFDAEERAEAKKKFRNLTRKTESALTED
Procedure: In vitro hydroxylation assay. The in vitro hydroxylation assay was modified from a previously described assay based on the fact that hydroxylation by PHDs results in decarboxylation of […]-ketoglutarate to form carbon dioxide. Briefly, […] reactions were performed in glass vials sealed with rubber stoppers and parafilm wax. Reaction mixtures containing 12.5 nmol synthetic peptide (Peptide 2.0), 50 mM Tris/HCl (pH 7.8), 2 mg/ml BSA, 4200 U/ml catalase, 0.1 mM DTT, 2 mM ascorbate, 500 μM FeSO4·7H2O, 0.02 μmol [1-^14C][…]-ketoglutarate (Perkin Elmer) and 1.2 μg recombinant PHD3 were incubated at 370 for 30 min. Reactions were stopped by injection of 0.25 ml of 1 M KH2PO4 (pH 5) into vials. Vials were agitated on slow speed for 30 min at room temperature to allow capture of [^14C]CO2 onto solubilized Whatman paper positioned at the top of the vials. CPM were measured by scintillation counts on filter paper.

Compound: CC(C)(C)c1ccc(N2C[C@@H](COc3ccc(C(=O)O)cc3)CC2=O)cc1 [S2E]
palmitate oxidation (FAO) [1]: increases palmitate oxidation; also recorded: amplified FAO | cell growth at 72 h [2]: restores cell growth; also recorded: rescued Molm14 cell growth

ACC activity [3]: activated
Compound: O=C(O)CC(O)(CC(=O)O)C(=O)O [citrate]

Compound: COC(=O)CCC(=O)C(=O)OC [dimethyl ketoglutarate]
palmitate oxidation [4]: repressed palmitate oxidation

Compound: CCOC(=O)[C@@]1(CCCCCCOc2ccc(Cl)cc2)CO1 [etomoxir]
sensitivity (viability) [5]: sensitive | cell viability [6]: substantial cell death | repression of FAO (palmitate oxidation) [7]: over 50%

Compound: CN(C)C(=N)N=C(N)N [metformin]
cell growth at 72 h [2]: trend toward rescued growth | colony formation (growth) [8]: improved growth; also recorded: partially rescues | colony formation (growth) ([8]; listed as Metformin): partially blocks the growth inhibitory effects | cell growth in soft agar ([8]; metformin on its own, 1 mM): impaired cell growth

Compound: COc1ccccc1OCC(O)CN1CCN(CC(=O)Nc2c(C)cccc2C)CC1 (centres unmarked) [ranolazine]
cell viability [9]: viability was largely maintained | sensitivity (viability) [10]: less sensitive | cell viability [6]: drastically reduced cell viability

hydroxylation by recombinant PHD3 [11]: not
Compound: AGQVWFPDSAYKTAQ [peptide containing P2131]

hydroxylation by recombinant PHD3 [11]: not
Compound: ARLELDDPSKVHPAE

hydroxylation by recombinant PHD3 [11]: shown to hydroxylate
Compound: ERIGFPLMIKASEGGGGK [ACC2 peptide containing P450]
